Measured values from patent publication US10556888B2, “Pyrazole compounds or salts thereof, preparation methods therefor, herbicidal compositions and use thereof” (QINGDAO KINGAGROOT CHEMICAL COMPOUNDS CO., LTD, priority 2015, dated 2020).

Assays:
[1] = system: Monocotyledonous and dicotyledonous weed; assay: Post-emergence test experiment, weed control effect (Table 2); assay type: in vivo; design: key to weed control effect, Setaria viridis (level) / weed control effect, Rorippa indica (level) / weed control effect, Abutilon theophrasti (level) / weed control effect, Echinochloa crus-galli (level) / weed control effect, Digitaria sanguinalis (level): Level 10: completely dead; Level 9: above 90% growth inhibition rate; Level 8: above 80% growth inhibition rate; Level 7: above 70% growth inhibition rate; Level 6: above 60% growth inhibition rate; Level 5: above 50% growth inhibition rate; Level 4: above 30% growth inhibition rate; Level 3: above 20% growth inhibition rate; Level 2: above 10% growth inhibition rate; Level 1: above 1-10% growth inhibition rate; Level 0: no effect; settings: 3 weeks after spraying, greenhouse
Procedure, shortened: (§1)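 Weed and crop seeds (wheat, corn, rice, soybean, cotton, oilseed, millet, sorghum) grown in soil in greenhouse; sprayed at 2-3 leaf stage, 2-3 weeks after sowing, with compound in acetone/Tween 80/water. Effects assessed after 3 weeks further greenhouse culture.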

[2] = system: main crop (wheat, corn, rice, soybean, cotton, oilseed, millet and sorghum); assay: Post-emergence test experiment, main crops (Table 2); assay type: in vivo; design: key: Level 10: completely dead; Level 9: above 90% growth inhibition rate; Level 8: above 80% growth inhibition rate; Level 7: above 70% growth inhibition rate; Level 6: above 60% growth inhibition rate; Level 5: above 50% growth inhibition rate; Level 4: above 30% growth inhibition rate; Level 3: above 20% growth inhibition rate; Level 2: above 10% growth inhibition rate; Level 1: above 1-10% growth inhibition rate; Level 0: no effect; settings: 3 weeks after spraying, greenhouse
Procedure, shortened: as §1

Cn1cc(C(=O)Oc2c(C(=O)c3ccc(S(C)(=O)=O)c(Cn4cc(Cl)cn4)c3Cl)c(C3CC3)nn2C)cn1 [Compound 18]
weed control effect, Abutilon theophrasti (level) ([1]; 120 g/ha): 9 (Level 9: above 90% growth inhibition rate) | weed control effect, Bidens pilosa (level) ([1]; 120 g/ha): 8 (Level 8: above 80% growth inhibition rate) | weed control effect, Digitaria sanguinalis (level) ([1]; 120 g/ha): 4 (Level 4: above 30% growth inhibition rate) | weed control effect, Echinochloa crus-galli (level) ([1]; 120 g/ha): 10 | weed control effect, Rorippa indica (level) ([1]; 120 g/ha): 10 | weed control effect, Setaria viridis (level) ([1]; 120 g/ha): 5 (Level 5: above 50% growth inhibition rate) | effect on crop, corn (level) ([2]; 120 g/ha): 0 | effect on crop, rice (level) ([2]; 120 g/ha): 1 (Level 1: above 1-10% growth inhibition rate) | effect on crop, wheat (level) ([2]; 120 g/ha): 0

Cc1nn(C)cc1C(=O)Oc1c(C(=O)c2ccc(S(C)(=O)=O)c(Cn3cccn3)c2Cl)c(C)nn1C [Compound 01]
weed control effect, Abutilon theophrasti (level) ([1]; 60 g/ha): 10 | weed control effect, Bidens pilosa (level) ([1]; 60 g/ha): 8 (Level 8: above 80% growth inhibition rate) | weed control effect, Digitaria sanguinalis (level) ([1]; 60 g/ha): 10 | weed control effect, Echinochloa crus-galli (level) ([1]; 60 g/ha): 10 | weed control effect, Rorippa indica (level) ([1]; 60 g/ha): 10 | weed control effect, Setaria viridis (level) ([1]; 60 g/ha): 10 | effect on crop, corn (level) ([2]; 60 g/ha): 1 (Level 1: above 1-10% growth inhibition rate) | effect on crop, rice (level) ([2]; 60 g/ha): 1 (Level 1: above 1-10% growth inhibition rate) | effect on crop, wheat (level) ([2]; 60 g/ha): 1 (Level 1: above 1-10% growth inhibition rate)

C#CCOCc1c(S(C)(=O)=O)ccc(C(=O)c2c(C3CC3)nn(C)c2OC(=O)c2cn(C)nc2C)c1Cl [Compound 47]
weed control effect, Abutilon theophrasti (level) ([1]; 30 g/ha): 7 (Level 7: above 70% growth inhibition rate) | weed control effect, Bidens pilosa (level) ([1]; 30 g/ha): 7 (Level 7: above 70% growth inhibition rate) | weed control effect, Digitaria sanguinalis (level) ([1]; 30 g/ha): 7 (Level 7: above 70% growth inhibition rate) | weed control effect, Echinochloa crus-galli (level) ([1]; 30 g/ha): 10 | weed control effect, Rorippa indica (level) ([1]; 30 g/ha): 10 | weed control effect, Setaria viridis (level) ([1]; 30 g/ha): 9 (Level 9: above 90% growth inhibition rate) | effect on crop, corn (level) ([2]; 30 g/ha): 0 | effect on crop, rice (level) ([2]; 30 g/ha): 3 (Level 3: above 20% growth inhibition rate) | effect on crop, wheat (level) ([2]; 30 g/ha): 0

Cc1nn(C)cc1C(=O)Oc1c(C(=O)c2ccc(S(C)(=O)=O)c(COCC(F)(F)F)c2Cl)cnn1C [Compound 44]
weed control effect, Abutilon theophrasti (level) ([1]; 30 g/ha): 7 (Level 7: above 70% growth inhibition rate) | weed control effect, Bidens pilosa (level) ([1]; 30 g/ha): 7 (Level 7: above 70% growth inhibition rate) | weed control effect, Digitaria sanguinalis (level) ([1]; 30 g/ha): 10 | weed control effect, Echinochloa crus-galli (level) ([1]; 30 g/ha): 10 | weed control effect, Rorippa indica (level) ([1]; 30 g/ha): 10 | weed control effect, Setaria viridis (level) ([1]; 30 g/ha): 9 (Level 9: above 90% growth inhibition rate) | effect on crop, corn (level) ([2]; 30 g/ha): 0 | effect on crop, rice (level) ([2]; 30 g/ha): 3 (Level 3: above 20% growth inhibition rate) | effect on crop, wheat (level) ([2]; 30 g/ha): 0

CCOCc1c(S(C)(=O)=O)ccc(C(=O)c2cnn(C)c2OC(=O)c2cn(C)nc2C)c1Cl [Compound 42]
weed control effect, Abutilon theophrasti (level) ([1]; 30 g/ha): 7 (Level 7: above 70% growth inhibition rate) | weed control effect, Bidens pilosa (level) ([1]; 30 g/ha): 7 (Level 7: above 70% growth inhibition rate) | weed control effect, Digitaria sanguinalis (level) ([1]; 30 g/ha): 7 (Level 7: above 70% growth inhibition rate) | weed control effect, Echinochloa crus-galli (level) ([1]; 30 g/ha): 10 | weed control effect, Rorippa indica (level) ([1]; 30 g/ha): 10 | weed control effect, Setaria viridis (level) ([1]; 30 g/ha): 9 (Level 9: above 90% growth inhibition rate) | effect on crop, corn (level) ([2]; 30 g/ha): 0 | effect on crop, rice (level) ([2]; 30 g/ha): 5 (Level 5: above 50% growth inhibition rate) | effect on crop, wheat (level) ([2]; 30 g/ha): 0

Cc1nn(C)cc1C(=O)Oc1c(C(=O)c2ccc(S(C)(=O)=O)c(COCC(F)F)c2Cl)c(C2CC2)nn1C [Compound 50]
weed control effect, Abutilon theophrasti (level) ([1]; 30 g/ha): 6 (Level 6: above 60% growth inhibition rate) | weed control effect, Bidens pilosa (level) ([1]; 30 g/ha): 7 (Level 7: above 70% growth inhibition rate) | weed control effect, Digitaria sanguinalis (level) ([1]; 30 g/ha): 8 (Level 8: above 80% growth inhibition rate) | weed control effect, Echinochloa crus-galli (level) ([1]; 30 g/ha): 10 | weed control effect, Rorippa indica (level) ([1]; 30 g/ha): 10 | weed control effect, Setaria viridis (level) ([1]; 30 g/ha): 9 (Level 9: above 90% growth inhibition rate) | effect on crop, corn (level) ([2]; 30 g/ha): 0 | effect on crop, rice (level) ([2]; 30 g/ha): 3 (Level 3: above 20% growth inhibition rate) | effect on crop, wheat (level) ([2]; 30 g/ha): 0

CCn1nc(C2CC2)c(C(=O)c2ccc(S(C)(=O)=O)c(Cn3cc(Cl)cn3)c2C)c1OC(=O)c1cn(C)nc1C [Compound 84]
weed control effect, Abutilon theophrasti (level) ([1]; 120 g/ha): 6 (Level 6: above 60% growth inhibition rate) | weed control effect, Bidens pilosa (level) ([1]; 120 g/ha): 6 (Level 6: above 60% growth inhibition rate) | weed control effect, Digitaria sanguinalis (level) ([1]; 120 g/ha): 1 (Level 1: above 1-10% growth inhibition rate) | weed control effect, Echinochloa crus-galli (level) ([1]; 120 g/ha): 10 | weed control effect, Rorippa indica (level) ([1]; 120 g/ha): 4 (Level 4: above 30% growth inhibition rate) | weed control effect, Setaria viridis (level) ([1]; 120 g/ha): 3 (Level 3: above 20% growth inhibition rate) | effect on crop, corn (level) ([2]; 120 g/ha): 0 | effect on crop, rice (level) ([2]; 120 g/ha): 0 | effect on crop, wheat (level) ([2]; 120 g/ha): 0
